Results taken from patent publication US8367692B2, “Spiro (piperidine-4,2′-pyrrolidine)-1-(3,5-trifluoromethyl phenyl) methylcarboxamides as NK1 tachikynin receptor antagonists” (Glaxo Wellcome Manufacturing Pte Ltd, priority 2008, dated 2013).

Columns and labels:
human NK1 receptor = target: T1, human NK1 receptor (Homo sapiens, UniProt P25103); assay: NK1 functional assay (B), FLIPR inhibition of intracellular calcium release induced by Substance P; format: cell-based; settings: U2OS cells transduced with BacMam virus expressing human NK1; ligand Substance P; read-out: binding potency pKi in the NK1 functional assay (B) (converted)
T1 construct: expressed in transfected cells; host or cells: human U2OS cells transiently transduced with recombinant BacMam virus
From the text: B) Measurement of NK Functional Potency:
Compounds of the invention were further characterised in a functional assay using FLIPR technology for the determination of their effect to inhibit the intracellular calcium release induced by interaction of NK receptors with its perspective ligands. Human U2OS cells transiently transduced with recombinant BacMam virus expressing human NK1, NK2 and NK3 receptors were used in the studies (see J. P. Condreay et al, Proc. Natl. Acad. Sci. USA 1999, 96(1): 127-132). Briefly, U20S cells were harvested from tissue culture flasks, re-suspended to a cell density of 200-300K/ml and mixed with recombinant BacMam virus carrying NKR gene in a virus/cell ratio of 1% (v/v). 10K-15K cells/well were then seeded in 384-well Greiner bio-one plate in culture medium (DMEM with 10% FBS), incubated overnight in 5% CO2 at 37° C. […] Finally, 10 uL/well of NKR ligands in assay buffer containing 0.1% BSA was added to the cells and fluorescence signal read on a FLIPR system. […] IC50 values of each compound were determined by an 11-point 3×-dilution inhibition curve. The potency each antagonist (fpKi) was calculated from plC50 by the Cheng-Prusoff equation using EC50 of ligand determined in a separate experiment.

NK1 receptor = target: T2, NK1 receptor (Meriones unguiculatus, UniProt Q5DUB1); assay: Gerbil foot tapping model (GR73632-induced, icv); format: in vivo
T2 construct: from tissue; host or cells: living gerbil, central nervous system (icv agonist challenge)
From the text: The ability of the compounds of the invention to penetrate the central nervous system and to bind at the NK1 receptor may be determined using the gerbil foot tapping model as described by Rupniak & Williams, Eur. Jour. of Pharmacol., 1994.
Intracerebroventricular (icv) administration of the NK1 receptor agonist GR73632 (R. M. Hagan et al., Neuropeptides 1991, 19 (2), 127-135) a characteristic hind leg foot tapping (GFT) response in gerbils which can be inhibited by potent NK1 receptor antagonists. The gerbil foot tapping paradigm was carried out as follows; gerbils were dosed with compound of the invention, and following an appropriate pre-treatment time were anaesthetised using isofluorane/oxygen mixture. The skull was then exposed and 5 ul of GR73632 (3 pmol conc.) was injected by insertion of a cuffed 25G needle to a depth of 4 mm below bregma, directly into the lateral ventricle (intracerebroventricular dosing). Immediately following the injection, gerbils were placed individually into a clear observation box to recover.
Upon the gerbil regaining its righting reflex, the duration of repetitive hind foot tapping was recorded over a 5 minute period. The dose of the test compound required to inhibit by 50% the tapping induced by the NK1 agonist expressed as mg/kg is referred to as the ID50 values.

T2 sequence (Q5DUB1 whole entry): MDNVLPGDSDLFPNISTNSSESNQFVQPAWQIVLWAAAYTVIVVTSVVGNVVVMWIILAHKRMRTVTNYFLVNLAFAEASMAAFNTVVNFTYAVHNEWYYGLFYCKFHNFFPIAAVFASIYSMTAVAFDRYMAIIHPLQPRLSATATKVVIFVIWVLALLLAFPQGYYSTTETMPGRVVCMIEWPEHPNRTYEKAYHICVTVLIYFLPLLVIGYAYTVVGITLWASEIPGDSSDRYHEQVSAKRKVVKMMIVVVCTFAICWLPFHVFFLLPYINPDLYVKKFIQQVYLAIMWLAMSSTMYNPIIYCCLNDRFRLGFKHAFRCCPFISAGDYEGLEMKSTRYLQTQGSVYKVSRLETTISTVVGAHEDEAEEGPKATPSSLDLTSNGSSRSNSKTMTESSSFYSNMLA
T1 sequence (P25103 whole entry): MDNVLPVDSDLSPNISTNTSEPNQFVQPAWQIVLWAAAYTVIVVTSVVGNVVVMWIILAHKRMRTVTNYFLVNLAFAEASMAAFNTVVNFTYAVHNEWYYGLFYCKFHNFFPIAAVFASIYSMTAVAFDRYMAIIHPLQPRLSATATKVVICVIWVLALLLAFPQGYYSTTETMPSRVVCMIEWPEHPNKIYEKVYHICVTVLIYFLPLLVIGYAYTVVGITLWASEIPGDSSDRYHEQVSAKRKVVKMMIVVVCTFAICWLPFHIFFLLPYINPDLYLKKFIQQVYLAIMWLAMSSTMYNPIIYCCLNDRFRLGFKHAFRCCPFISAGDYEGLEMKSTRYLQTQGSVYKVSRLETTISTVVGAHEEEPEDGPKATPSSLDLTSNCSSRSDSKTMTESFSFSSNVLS

Row | SMILES | Ki (human NK1 receptor) [nM] | GR73632-induced Foot Tapping behaviour (NK1 receptor; dose range of 0.1 to 10 mg/kg p.o.) | ED50 (NK1 receptor; po, read-out: ID50, dose required to inhibit by 50% the tapping induced by the NK1 agonist) [mg/kg]
1 | Cc1cc(F)ccc1[C@H]1C[C@@]2(CCC(C(N)=O)N2)CCN1C(=O)N(C)[C@H](C)c1cc(C(F)(F)F)cc(C(F)(F)F)c1 (single isomer, unassigned; diastereoisomer 1) [Example 1] | < 1 | – | –
2 | Cc1cc(F)ccc1[C@H]1C[C@]2(CC[C@H](C(N)=O)N2)CCN1C(=O)N(C)[C@H](C)c1cc(C(F)(F)F)cc(C(F)(F)F)c1.Cl [Example 4, (2R,5S,7R)—N^8-{(1R)-1-[3,5-bis(trifluoromethyl)phenyl]ethyl}-7-(4-fluoro-2-methylphenyl)-N^8-methyl-1,8-diazaspiro[4.5]decane-2,8-dicarboxamide hydrochloride] | – | significantly attenuated | ~0.67
